Assay results taken from patent US9109041B2, “Analog compounds of analgesic peptides derived from the venom of crotalus durissus terrificus snakes, their uses, compositions, methods of preparation and purification” (priority 2004, dated 2015).

Legend:
[1] = system: hyperalgesia induced by chronic constriction of the sciatic nerve; assay: hyperalgesia induced by chronic constriction of the sciatic nerve (rat paw pressure test); type: in vivo
Protocol: For the induction of neuropathic pain, surgery was performed in the sciatic nerve, in accordance with the method described by Bennett, G. J and Xie, Y. K. (Pain, 33:87-107, 1988). The animals were anesthetized with halothane. The sciatic nerve was exposed in the middle region of the thigh, moving away the femoral biceps muscle. Close to the trifurcation of the sciatic nerve, 7 mm of distance from the trifurcation, 4 loose ligations were performed (chromed catgut 4-0) around it, distant from each other in approximately 1 mm. The bindings were performed along the nerve, up to 4-5 mm from the initial point. The incision was sutured in layers, using silk suture thread number 4-0.
The test was applied before (BM-basal measurement) and on the 14th day after the surgery, to characterize the development of neuropathic pain.
The results were analyzed by comparing the means of the basal and initial measurements or by comparing the means of the initial and final measurements or, when determined, through the comparison of the means obtained in the different experimental groups.
For this purpose, the animals were treated with CTOP, a specific μ receptor antagonist (20 μg/paw), nor-BNI, a specific κ receptor antagonist (50 μg/paw) or with ICI 174,864, a specific δ receptor antagonist (10 μg/paw). The antagonists were injected, by intraplantar route. The peptide was administered in the dose of 5 μg/kg, orally, immediately before the injection of the opioid antagonists.
The results were analyzed comparing the mean values of the basal and initial measurements, or of the initial and final measurements or, when determined, by comparing the mean values obtained in the different experimental groups (Tables 15 and 16).

[2] = system: prostaglandin E2-induced hyperalgesia; assay: rat paw pressure test, prostaglandin E2-induced hyperalgesia; details: for 50% effective dose / 60% effective dose / 90% effective dose: reversal of PGE2-induced hyperalgesia, CurveExpert 1.3
[3] = oral route, results 1 hour after treatment, reversal of hyperalgesia, CurveExpert 1.3

**Q.** What does the source list for “Xaa-Phe-Ser-Pro-Glu-Asn-Cys-Gln-Gly-Glu-Ser-Gln-Pro-Cys [SEQ ID NO: 2]”?
**A.** pain threshold, IM ([1]; 5 μg/kg p.o., day 14 after surgery, before peptide (Table 11)): 32 ± 0.79 g; duration of the anti-hyperalgesic effect ([1]; one single administration p.o.): up to 3 days; 50% effective dose [1, 3]: 0.2055 µg/kg; 60% effective dose [1, 3]: 0.2832 µg/kg; 90% effective dose [1, 3]: 0.5747 µg/kg; effect of the mu opioid receptor antagonist on the anti-hyperalgesic effect of the peptide ([1]; peptide 5 μg/kg p.o., CTOP 20 μg/paw i.pl.): did not alter; effect of the delta opioid receptor antagonist on the anti-hyperalgesic effect of the peptide ([1]; peptide 5 μg/kg p.o., ICI 174,864 10 μg/paw i.pl.): blocked; effect of the kappa opioid receptor antagonist on the anti-hyperalgesic effect of the peptide ([1]; peptide 5 μg/kg p.o., nor-BNI 50 μg/paw i.pl.): partially inhibited; pain threshold, FM (g) ± S.E.M ([2]; 0.00000256 μg/paw i.pl., 3 h after PGE2 100 ng/paw i.pl.): 57 ± 5.34 g; pain threshold, IM (g) ± S.E.M. ([2]; 0.00000256 μg/paw i.pl., before PGE2): 72 ± 1.12 g; pain threshold, FM (g) ± S.E.M ([2]; 0.0000128 μg/kg i.v., 3 h after PGE2 100 ng/paw i.pl.): 54 ± 3.04 g; pain threshold, IM (g) ± S.E.M. ([2]; 0.0000128 μg/kg i.v., before PGE2): 70 ± 2.05 g; pain threshold, FM (g) ± S.E.M ([2]; 0.0000128 μg/paw i.pl., 3 h after PGE2 100 ng/paw i.pl.): 62 ± 3.22 g; pain threshold, IM (g) ± S.E.M. ([2]; 0.0000128 μg/paw i.pl., before PGE2): 71 ± 2.39 g; pain threshold, FM (g) ± S.E.M ([2]; 0.000064 μg/kg i.v., 3 h after PGE2 100 ng/paw i.pl.): 54 ± 2.39 g; pain threshold, IM (g) ± S.E.M. ([2]; 0.000064 μg/kg i.v., before PGE2): 68 ± 1.44 g; pain threshold, FM (g) ± S.E.M ([2]; 0.00032 μg/kg i.v., 3 h after PGE2 100 ng/paw i.pl.): 63 ± 5.16 g; pain threshold, IM (g) ± S.E.M. ([2]; 0.00032 μg/kg i.v., before PGE2): 72 ± 1.84 g; pain threshold, FM (g) ± S.E.M ([2]; 0.00032 μg/paw i.pl., 3 h after PGE2 100 ng/paw i.pl.): 60 ± 3.25 g; pain threshold, IM (g) ± S.E.M. ([2]; 0.00032 μg/paw i.pl., before PGE2): 67 ± 2.35 g; pain threshold, FM (g) ± S.E.M ([2]; 0.0016 μg/kg i.v., 3 h after PGE2 100 ng/paw i.pl.): 67 ± 2.35 g; pain threshold, IM (g) ± S.E.M. ([2]; 0.0016 μg/kg i.v., before PGE2): 74 ± 0.92 g; pain threshold, FM (g) ± S.E.M ([2]; 0.0016 μg/kg p.o., 3 h after PGE2 100 ng/paw i.pl.): 64 ± 1.00 g; pain threshold, IM (g) ± S.E.M. ([2]; 0.0016 μg/kg p.o., before PGE2): 78 ± 1.22 g; pain threshold, FM (g) ± S.E.M ([2]; 0.0016 μg/paw i.pl., 3 h after PGE2 100 ng/paw i.pl.): 67 ± 1.12 g; pain threshold, IM (g) ± S.E.M. ([2]; 0.0016 μg/paw i.pl., before PGE2): 72 ± 1.84 g; pain threshold, FM (g) ± S.E.M ([2]; 0.008 μg/kg i.v., 3 h after PGE2 100 ng/paw i.pl.): 73 ± 4.74 g; pain threshold, IM (g) ± S.E.M. ([2]; 0.008 μg/kg i.v., before PGE2): 69 ± 2.26 g; pain threshold, FM (g) ± S.E.M ([2]; 0.008 μg/kg p.o., 3 h after PGE2 100 ng/paw i.pl.): 71 ± 2.39 g; pain threshold, IM (g) ± S.E.M. ([2]; 0.008 μg/kg p.o., before PGE2): 79 ± 1.25 g; pain threshold, FM (g) ± S.E.M ([2]; 0.04 μg/kg p.o., 3 h after PGE2 100 ng/paw i.pl.): 75 ± 1.87 g; pain threshold, IM (g) ± S.E.M. ([2]; 0.04 μg/kg p.o., before PGE2): 77 ± 1.22 g; pain threshold, FM (g) ± S.E.M ([2]; 0.2 μg/kg p.o., 3 h after PGE2 100 ng/paw i.pl.): 84 ± 1.87 g; pain threshold, IM (g) ± S.E.M. ([2]; 0.2 μg/kg p.o., before PGE2): 77 ± 2.00 g; pain threshold, FM (g) ± S.E.M ([2]; 1 μg/kg p.o. + CTOP 20 μg/leg i.pl. with PGE2, 3 h after PGE2): 114 ± 1.87 g; pain threshold, IM (g) ± S.E.M. ([2]; 1 μg/kg p.o. + CTOP 20 μg/leg i.pl., before PGE2): 77 ± 1.22 g; pain threshold, FM (g) ± S.E.M ([2]; 1 μg/kg p.o. + ICI174,864 10 μg/paw i.pl. with PGE2, 3 h after PGE2): 114 ± 1.00 g; pain threshold, IM (g) ± S.E.M. ([2]; 1 μg/kg p.o. + ICI174,864 10 μg/paw i.pl., before PGE2): 78 ± 1.22 g; pain threshold, FM (g) ± S.E.M ([2]; 1 μg/kg p.o. + nor-Binalthorphimine 50 μg/leg i.pl. with PGE2, 3 h after PGE2): 56 ± 1.87 g; pain threshold, IM (g) ± S.E.M. ([2]; 1 μg/kg p.o. + nor-Binalthorphimine 50 μg/leg i.pl., before PGE2): 77 ± 1.22 g; pain threshold, IM (g) ± S.E.M. ([2]; 1 μg/kg p.o., 0 h, before administration (Table 6)): 79 ± 1.00 g; pain threshold, FM (g) ± S.E.M ([2]; 1.0 μg/kg p.o., 3 h after PGE2 100 ng/paw i.pl. (Table 2)): 108 ± 2.00 g; pain threshold, FM (g) ± S.E.M ([2]; 1 μg/kg p.o., 3 h after PGE2 100 ng/paw i.pl. (Table 7)): 111 ± 3.32 g; pain threshold, FM (g) ± S.E.M ([2]; 1 μg/kg p.o., 24 h after administration, PGE2 100 ng/paw 3 h before measurement): 126 ± 3.32 g; pain threshold, FM (g) ± S.E.M ([2]; 1 μg/kg p.o., 48 h after administration, PGE2 100 ng/paw 3 h before measurement): 121 ± 1.87 g; pain threshold, FM (g) ± S.E.M ([2]; 1 μg/kg p.o., 72 h after administration, PGE2 100 ng/paw 3 h before measurement): 111 ± 4.3 g; pain threshold, FM (g) ± S.E.M ([2]; 1 μg/kg p.o., 96 h after administration, PGE2 100 ng/paw 3 h before measurement): 117 ± 2.5 g; pain threshold, FM (g) ± S.E.M ([2]; 1 μg/kg p.o., 120 h after administration, PGE2 100 ng/paw 3 h before measurement): 130 ± 2.24 g; pain threshold, FM (g) ± S.E.M ([2]; 1 μg/kg p.o., 144 h after administration, PGE2 100 ng/paw 3 h before measurement): 59 ± 2.39 g; pain threshold, IM (g) ± S.E.M. ([2]; 1.0 μg/kg p.o., before PGE2 (Table 2)): 77 ± 2.00 g; pain threshold, IM (g) ± S.E.M. ([2]; 1 μg/kg p.o., before PGE2 (Table 7)): 77 ± 1.22 g; pain threshold, FM (g) ± S.E.M ([2]; 5 μg/kg p.o. + ICI174,864 i.pl. with PGE2, 3 h after PGE2): 145 ± 2.89 g; pain threshold, IM (g) ± S.E.M. ([2]; 5 μg/kg p.o. + ICI174,864 i.pl., before PGE2): 77 ± 1.05 g; pain threshold, FM (g) ± S.E.M ([2]; 5 μg/kg p.o. + nor-BNI i.pl. with PGE2, 3 h after PGE2): 58 ± 2.47 g; pain threshold, IM (g) ± S.E.M. ([2]; 5 μg/kg p.o. + nor-BNI i.pl., before PGE2): 77 ± 1.05 g; pain threshold, FM (g) ± S.E.M ([2]; 5.0 μg/kg p.o., 3 h after PGE2 100 ng/paw i.pl. (Table 2)): 130 ± 1.58 g; pain threshold, FM (g) ± S.E.M ([2]; 5 μg/kg p.o., 3 h after PGE2 100 ng/paw i.pl. (Table 8)): 147 ± 2.55 g; pain threshold, IM (g) ± S.E.M. ([2]; 5.0 μg/kg p.o., before PGE2 (Table 2)): 78 ± 2.00 g; pain threshold, IM (g) ± S.E.M. ([2]; 5 μg/kg p.o., before PGE2 (Table 8)): 77 ± 1.22 g; pain threshold, FM (g) ± S.E.M ([2]; 25.0 μg/kg p.o., 3 h after PGE2 100 ng/paw i.pl.): 133 ± 3.39 g; pain threshold, IM (g) ± S.E.M. ([2]; 25.0 μg/kg p.o., before PGE2): 79 ± 1.87 g; 50% effective dose ([2]; intraplantar route): 0.000002327 µg/kg; 60% effective dose ([2]; intraplantar route): 0.000004904 µg/kg; 90% effective dose ([2]; intraplantar route): 0.002876 µg/kg; 50% effective dose ([2]; intravenous route): 0.0000458 µg/kg; 60% effective dose ([2]; intravenous route): 0.0002144 µg/kg; 90% effective dose ([2]; intravenous route): 0.002701 µg/kg; duration of the antinociceptive effect ([2]; one single administration, 1 μg/kg p.o.): up to 120 hours; 50% effective dose ([2]; oral route): 0.004146 µg/kg; 60% effective dose ([2]; oral route): 0.006348 µg/kg; 90% effective dose ([2]; oral route): 0.02106 µg/kg; opioid receptors involved in the antinociceptive effect ([2]; peptide 1 μg/kg p.o., delta, kappa, mu antagonists i.pl.): kappa opioid receptors are involved; opioid receptors involved in the antinociceptive activity ([2]; peptide 5 μg/kg p.o., kappa and delta antagonists i.pl.): kappa opioid receptors are involved; analgesic activity ([2]; synthetic peptides compared with natural ENPAK-k, similar conditions): same analgesic activity as the natural ENPAK-k
